# Marks after values point to notes of the source that are not given here.
# Tests used:
# Assay type in all cases: in vivo
# [1] = system: gene pathways in mouse brain (prefrontal cortex); experiment: RNA sequencing of prefrontal cortex after supplemented metabolites: differentially expressed gene pathways; conditions: two weeks supplementation
# Procedure: Transcriptomics data (RNA sequencing) was collected from the prefrontal cortex of 12-week old mice after consuming a low, medium, or high dosage of supplemented metabolites for two weeks. RNA sequencing used brain tissue to evaluate possible correlation between changes in relative changes in gene transcription with changes in behavior. The number of differentially expressed gene pathways at significance level of 0.05, 0.1, and 0.15 was determined (Table 1).
# mice [2] = experiment: Elevated plus maze (anxiogenic behavior)
# Procedure: (§1) Mice were fed 80% of their total food as non-supplemented food (chow) for 4 days. For the next two weeks, mice were fed 80% of their total food as non-supplemented food and the remaining 20% was supplemented with selected metabolites(s). Mice were fed on food supplemented with various metabolites including 5-dodecacenoate (5D), glycodeoxycholate (GDC), ursodeoxycholate (UDC), or a control food lacking a supplement (CTL). Mouse behavior was tested using an elevated plus maze (FIG. 13), a three-chamber sociability test, and tracking wheel usage. During testing, mice were fed 80% of their total food as non-supplemented food and the remaining 20% was supplemented with the selected metabolites(s).
# Anxiogenic behavior was tested by tracking time spent in closed arms of an elevated plus maze. Control mice were fed food lacking a supplement.
# mice [3] = experiment: Habituation over three days (distance traveled, time in center, ambulatory time)
# Procedure: as §1
# Habituation over was tested with the […] (FIG. 16). […] Significance was tested with an ANOVA test.
# Habituation was measured by tracking the amount of time spent in the center of the chamber (FIG. 18).
# Active time was also measured as total ambulatory time and center ambulatory time.
# mice [4] = experiment: Three-chamber sociability test
# Procedure: as §1
# Additionally, the effect of supplementation with the metabolites on sociability was measured with a three-chamber sociability test (FIG. 21). This chamber tested for responses to social novelty.
# mice [5] = experiment: Mouse wheel distance traveled
# Procedure: as §1
# Lastly, mice fed with food supplemented with various metabolites were given a mouse wheel and distance traveled was tracked.
# CNTNAP2 mice [6] = experiment: Gut microbiota taxonomic composition in colons with 5D supplementation
# Procedure: Genera under the family Lachnospiraceae and Ruminococcaceae were consistently seen increased in CNTNAP2 mice and decreased with 5D supplementation.
# P-values were determined using permanova and beta-dispersion tests. FIGS. 29B-29N show results of differential abundance test of ASVs aggregated at the genus level. […] P-values were determined using Wilcoxon rank sum test, values were reported as fold change of median of C57BL/6 controls.
# CNTNAP2 mice [7] = experiment: Lipidomic profiles and triglyceride levels in brain, plasma, liver and stool
# Source text: Triglycerides were identified as influential in every tissue measured. Lipids were first aggregated into categories (e.g. triglycerides, phosphocholines), then PCA ordination was applied. […] P-values determined from permanova test between treatments are shown as annotations.
# Intensities were normalized using CUDA calibration and were reported as log fold change of median of C57BL/6 wild type controls. P-values were derived from Wilcox rank sum test.
# [8] = system: gene pathways in frontal cortex of CNTNAP2 mice; experiment: RNA-sequencing and gene set enrichment analysis of frontal cortex; conditions: for normalized enrichment score: 5D vs normal chow
# Procedure: In this example, to further investigate 5D's effect on neuronal function, RNA-sequencing was performed on the frontal cortex region of CNTNAP2 mice supplemented with 5D after 3 weeks.
# Bar size depicts enrichment score normalized by gene set size, and color depicts fdr corrected p-value as determined by gene set enrichment analysis. […] (CNTNAP-NormC: n=5, CNTNAP-5D: n=9)
# [9] = behavioral assay summary, Yes/No
# [10] = frontal cortex of CNTNAP2 mice after 3 weeks
smiles,measurement,setting,value
"CCCCCCC=CCCCC(=O)O [5D, 5-dodecenoate]",Differentially Expressed Gene Pathways in Mouse Brain,"[1]; significance level 0.05, 12-week old mice",0
same,Differentially Expressed Gene Pathways in Mouse Brain,"[1]; significance level 0.1, 12-week old mice",216
same,Differentially Expressed Gene Pathways in Mouse Brain,"[1]; significance level 0.15, 12-week old mice",235
same,EPM closed arms,mice [2]; [9],Yes
same,EPM open arms,mice [2]; [9],No
same,active time in the closed arms of the maze,mice [2]; vs control mice,lower active time in the closed arms of the maze than control mice
same,time spent in closed arms of elevated plus maze,mice [2]; vs control mice,spent less time in the closed arms of the maze
same,Habituation exploration,mice [3]; [9],Yes
same,Habituation time in center,mice [3]; [9],Yes
same,habituation: total distance traveled and exploratory activity,mice [3]; over three days,lower total distance traveled and exploratory activity over three days
same,center ambulatory time,mice [3]; over time,increase in center ambulatory time over time
same,time spent in the center of the chamber,mice [3]; over time,increase in time spent in the center of the chamber over time
same,Sociability,mice [4]; [9],Yes
same,"time spent with a new mouse, compared among treatments","mice [4]; mouse, in vivo",spent the most time with a new mouse
same,time spent with novel mouse ('new') vs known mouse ('old'),mice [4]; response to social novelty,spent more time with a novel mouse
same,night-time activity,mice [5]; after administering metabolites,night-time activity increased
same,"Adjusted p value, comparison of average distance traveled",mice [5]; treatment average vs Control Average,0.01466*
same,Romboutsia ilealis levels,CNTNAP2 mice [6]; CNTNAP2 mice,found at very high levels in some CNTNAP2 mice
same,ten genera of bacteria increased in CNTNAP2 mice compared to C57BL/6,CNTNAP2 mice [6]; Wilcoxon rank sum test,significantly decreased
same,taxonomic composition of gut microbiota,"CNTNAP2 mice [6]; oral supplementation, CNTNAP2 mice vs C57BL/6 wild types",shifts the taxonomic composition of CNTNAP2 mice
same,lipid profiles in brain and stool,CNTNAP2 mice [7],"tended to shift brain and stool profiles, though this shift was not statistically significant"
same,lipid profiles in plasma and liver,CNTNAP2 mice [7],significantly shift CNTNAP2 mouse lipid profiles in plasma and liver
same,"triglyceride levels in brain, liver, plasma and stool",CNTNAP2 mice [7]; dietary supplementation,decreased the levels significantly in each of the tissues
same,normalized enrichment score,[8]; R-MMU-112314 Neurotransmitter receptors and postsynaptic signal transmission,−2.033
same,normalized enrichment score,[8]; R-MMU-112315 Transmission across Chemical Synapses,−1.846
same,normalized enrichment score,[8]; R-MMU-112316 Neuronal System,−2.025
same,normalized enrichment score,[8]; R-MMU-114604 GPVI-mediated activation cascade,1.832
same,normalized enrichment score,[8]; R-MMU-181431 Acetylcholine binding and downstream events,−2.154
same,normalized enrichment score,[8]; R-MMU-195721 Signaling by WNT,−1.416
same,normalized enrichment score,[8]; R-MMU-198933 Immunoregulatory interactions between a Lymphoid and a non-Lymphoid cell,1.706
same,normalized enrichment score,[8]; R-MMU-202733 Cell surface interactions at the vascular wall,1.736
same,normalized enrichment score,[8]; R-MMU-216083 Integrin cell surface interactions,1.99
same,normalized enrichment score,[8]; R-MMU-397014 Muscle contraction,−1.646
same,normalized enrichment score,[8]; R-MMU-418360 Platelet calcium homeostasis,−2.258
same,normalized enrichment score,[8]; R-MMU-419037 NCAM1 interactions,1.823
same,normalized enrichment score,[8]; R-MMU-622323 Presynaptic nicotinic acetylcholine receptors,−2.107
same,normalized enrichment score,[8]; R-MMU-622327 Postsynaptic nicotinic acetylcholine receptors,−2.154
same,normalized enrichment score,[8]; R-MMU-629594 Highly calcium permeable postsynaptic nicotinic acetylcholine receptors,−2.095
same,normalized enrichment score,[8]; R-MMU-983168 Antigen processing: Ubiquitination and Proteasome degradation,−1.55
same,normalized enrichment score,[8]; R-MMU-1296071 Potassium Channels,−1.854
same,normalized enrichment score,[8]; R-MMU-1296072 Voltage gated Potassium channels,−1.912
same,normalized enrichment score,[8]; R-MMU-1442490 Collagen degradation,2.005
same,normalized enrichment score,[8]; R-MMU-1474228 Degradation of the extracellular matrix,1.968
same,normalized enrichment score,[8]; R-MMU-1474244 Extracellular matrix organization,1.79
same,normalized enrichment score,[8]; R-MMU-1474290 Collagen formation,2.185
same,normalized enrichment score,[8]; R-MMU-1650814 Collagen biosynthesis and modifying enzymes,2.145
same,normalized enrichment score,[8]; R-MMU-2022090 Assembly of collagen fibrils and other multimeric structures,2.261
same,normalized enrichment score,[8]; R-MMU-2022857 Keratan sulfate degradation,1.893
same,normalized enrichment score,[8]; R-MMU-3928664 Ephrin signaling,−2.03
same,normalized enrichment score,[8]; R-MMU-5576891 Cardiac conduction,−1.669
same,normalized enrichment score,[8]; R-MMU-5668599 RHO GTPases Activate NADPH Oxidases,1.842
same,normalized enrichment score,[8]; R-MMU-5686938 Regulation of TLR by endogenous ligand,1.963
same,normalized enrichment score,[8]; R-MMU-6794361 Neurexins and neuroligins,−1.973
same,normalized enrichment score,[8]; R-MMU-6794362 Protein-protein interactions at synapses,−2.181
same,normalized enrichment score,[8]; R-MMU-6798695 Neutrophil degranulation,1.588
same,normalized enrichment score,[8]; R-MMU-6803157 Antimicrobial peptides,1.959
same,normalized enrichment score,[8]; R-MMU-6811436 COPI-independent Golgi-to-ER retrograde traffic,−1.957
same,normalized enrichment score,[8]; R-MMU-8878159 Transcriptional regulation by RUNX3,−1.748
same,normalized enrichment score,[8]; R-MMU-8948216 Collagen chain trimerization,2.098
same,normalized enrichment score,[8]; R-MMU-8951664 Neddylation,−1.571
same,"expression of collagen, extracellular matrix, cell structure and interaction pathways",[8]; [10],increased the expression of pathways such as collagen formation
same,expression of innate immunity pathways,[8]; [10],increased expression of pathways that relate to innate immunity
same,expression of synapse-dependent pathways,[8]; [10],decreased expression of synapse-dependent pathways
same,genes significantly modulated (p<0.05),[8]; [10],1438

# Reference: patent US20240000860A1, “METHODS FOR TREATING AUTISM SPECTRUM DISORDER” (priority 2020, published 2024)
